# In the supplement of paper PMC10307832:
# Compound: C=CCn1c(=O)c2cnc(Nc3ccc(N4CCN(C)CC4)cc3)nc2n1-c1cccc(C(C)(C)O)n1 [Adavosertib] + CC(=O)c1c(C)c2cnc(Nc3ccc(N4CCNCC4)cn3)nc2n(C2CCCC2)c1=O [Palbociclib] (partner 0.5 µM)
# Assay: relative viability (nuclei count vs DMSO), 5 days (fraction); higher = more cells survive
# Details: first compound 0.01 µM
# In short: (§1)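 Lung cancer cell lines in 1536-well plates were dosed by pin tool the day after seeding, either with one drug alone or with a fixed anchor-drug dose plus five library-drug doses (not always all listed) in √10 steps. After 5 days, cells were fixed and their nuclei stained in one step (final 0.05% Triton X-100, 1% formaldehyde, 1 ug/ml Hoechst), then counted on 4× images. Relative viability is the nuclei count in treated wells divided by that in vehicle wells. Values are medians of duplicate plates.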
row,Cell Line,relative viability
1,COR-L 105,0.374
2,ChaGo-K-1,0.884
3,EKVX,0.365
4,EPLC-272H,0.331
5,H3255,0.317
6,HARA,0.21
7,HCC-15,0.744
8,HCC-44,0.989
9,HCC-78,0.531
10,HCC-366,0.396
11,HCC-827,0.467
12,HOP-62,0.496
13,LC-2-ad,0.535
14,LCLC-97TM1,0.25
15,LCLC-103H,0.498
16,LK-2,0.7
17,LOU-NH91,0.609
18,LU99A,0.404
19,LXF-289,0.576
20,NCI-H23,0.503
21,NCI-H322M,0.439
22,NCI-H358,0.15
23,NCI-H441,0.234
24,NCI-H460,0.182
25,NCI-H520,0.22
26,NCI-H522,1.02
27,NCI-H647,0.408
28,NCI-H650,0.344
29,NCI-H661,0.424
30,NCI-H1648,0.311

# Same assay, conditions: first compound 0.03162 µM
row,Cell Line,relative viability
1,201T,0.356
2,A-427,0.567
3,ABC-1,0.745
4,BEN,0.434
5,CAL-12T,0.492
6,COR-L23,0.338
7,COR-L 105,0.419
8,ChaGo-K-1,0.949
9,EKVX,0.354
10,EPLC-272H,0.32
11,H3255,0.341
12,HARA,0.271
13,HCC-15,0.706
14,HCC-44,1.01
15,HCC-78,0.525
16,HCC-366,0.388
17,HCC-827,0.452
18,HOP-62,0.513

row,Cell Line,relative viability
1,LC-2-ad,0.467
2,LCLC-97TM1,0.213
3,LCLC-103H,0.478
4,LK-2,0.937
5,LOU-NH91,0.497
6,LU99A,0.373
7,LXF-289,0.619
8,NCI-H23,0.53
9,NCI-H322M,0.479
10,NCI-H358,0.137
11,NCI-H441,0.25
12,NCI-H460,0.19
13,NCI-H520,0.214
14,NCI-H522,1.1
15,NCI-H647,0.461
16,NCI-H650,0.372
17,NCI-H661,0.449
18,NCI-H1648,0.29

# Same assay, conditions: first compound 0.1 µM
row,Cell Line,relative viability
1,201T,0.364
2,A-427,0.538
3,ABC-1,0.777
4,BEN,0.473
5,CAL-12T,0.425
6,COR-L23,0.274
7,COR-L 105,0.415
8,ChaGo-K-1,1.01
9,EKVX,0.344
10,EPLC-272H,0.35
11,H3255,0.333
12,HARA,0.349
13,HCC-15,0.739
14,HCC-44,1.03
15,HCC-78,0.508
16,HCC-366,0.471
17,HCC-827,0.533
18,HOP-62,0.59

row,Cell Line,relative viability
1,LC-2-ad,0.55
2,LCLC-97TM1,0.237
3,LCLC-103H,0.469
4,LK-2,0.879
5,LOU-NH91,0.548
6,LU99A,0.393
7,LXF-289,0.656
8,NCI-H23,0.419
9,NCI-H322M,0.417
10,NCI-H358,0.0992
11,NCI-H441,0.241
12,NCI-H460,0.181
13,NCI-H520,0.229
14,NCI-H522,1.21
15,NCI-H647,0.261
16,NCI-H650,0.336
17,NCI-H661,0.464
18,NCI-H1648,0.219

# Same assay, conditions: first compound 0.3162 µM
row,Cell Line,relative viability
1,201T,0.367
2,A-427,0.52
3,ABC-1,0.896
4,BEN,0.501
5,CAL-12T,0.262
6,COR-L23,0.205
7,COR-L 105,0.444
8,ChaGo-K-1,0.885
9,EKVX,0.5
10,EPLC-272H,0.317
11,H3255,0.32
12,HARA,0.265
13,HCC-15,0.899
14,HCC-44,0.966
15,HCC-78,0.428
16,HCC-366,0.329
17,HCC-827,0.532
18,HOP-62,0.486

row,Cell Line,relative viability
1,LC-2-ad,0.519
2,LCLC-97TM1,0.294
3,LCLC-103H,0.464
4,LK-2,0.761
5,LOU-NH91,0.531
6,LU99A,0.409
7,LXF-289,0.735
8,NCI-H23,0.219
9,NCI-H322M,0.463
10,NCI-H358,0.128
11,NCI-H441,0.197
12,NCI-H460,0.125
13,NCI-H520,0.246
14,NCI-H522,1.06
15,NCI-H647,0.316
16,NCI-H650,0.371
17,NCI-H661,0.451
18,NCI-H1648,0.244

# Compound: COc1nc(N)nc2c1ncn2[C@@H]1O[C@H](CO)[C@@H](O)[C@@H]1O [Nelarabine] + N=C(N)NC(=N)NCCc1ccccc1 [Phenformin] (partner 250 µM)
# Assay: as above
# Details: first compound 0.01 µM
# In short: as §1
row,Cell Line,relative viability
1,201T,0.459
2,A549,0.209
3,A-427,0.315
4,ABC-1,0.216
5,BEN,0.264
6,CAL-12T,0.664
7,COR-L23,0.525
8,COR-L 105,0.497
9,ChaGo-K-1,0.549
10,EKVX,0.22
11,EPLC-272H,0.236
12,HARA,0.62
13,HCC-15,0.582
14,HCC-44,0.194
15,HCC-78,0.709
16,HCC-366,0.644
17,HCC-827,0.373
18,HOP-62,0.787
19,LC-2-ad,0.618
20,LCLC-97TM1,0.506
21,LCLC-103H,0.329
22,LK-2,0.433
23,LOU-NH91,0.49
24,LU99A,0.88
